According to patent US7601884B2, “Method of producing cloned animals by demecolcine treatment” (KNU - Industry Cooperation Foundation, priority 2007, dated 2009):

Assays:
SCNT porcine embryos = experiment: In vitro development of SCNT porcine embryos after DEM treatment; format: cell-based, pig
Description: (§1) After the activation stimulation, the activated embryos were incubated in NCSU-23 culture medium containing 0.4 μg/ml demecolcine (DEM) (Sigma-Aldrich Corp., USA) for 4 hours.
With the same method as in Exemplary Embodiment <3-4>, the fused NT embryos were electrically activated, but not treated with DEM.
After activation stimulation, the SCNT embryos were cultured in in vitro culture medium for 6 days in an atmosphere of 5% CO2, 5% O2 and 90% N2 gas.
(§2) The SCNT embryos of Exemplary Embodiment 3 and Comparative Example 1 were cultured in vitro with an atmosphere of 5% CO2, 5% O2 and 90% N2 gases. On the second and sixth days of the in vitro culture, their division rates and development to blastocysts were monitored. Further, the blastocysts were stained with bis-benzimide to estimate the number of cells under a fluorescent microscope.

SCNT embryos [1] = experiment: Production of pseudo-pronuclei of SCNT embryos after DEM treatment; format: cell-based, pig; conditions: 0.4 μg/ml DEM for 4 hours
Description: as §1
The oocytes treated with DEM of Exemplary Embodiment 3 or the oocytes of Comparative Example 1 were cultured in vitro for 7 hours, activated, fixed for 11 hours, and stained to estimate the number of pseudo-pronuclei and their production rate. The fixation of the oocytes was performed using a whole-mount method. 10 to 20 oocytes were placed on a slide glass and covered with a cover glass. The oocytes were fixed in a fixative (25% acetic acid in ethanol) at 33° C. for 10 to 20 minutes. The fixed oocytes were stained with 1% orcein (in 45% acetic acid solution) and then the pseudo pronuclei were observed by a phase microscope.

[2] = system: recipient pigs transferred with SCNT embryos; experiment: Delivery rate and number of pigs born alive after in vivo transfer of DEM-treated SCNT embryos; set-up: species or system pig
Text: For in vivo transfer of the NT embryos, a naturally-estrous gilt was used as a recipient animal. On the day of the production of the NT embryos, a standing estrus pig was subjected to inhalation anesthesia, and using a common method, cut open to expose the ovaries and oviducts. After confirming the presence of follicle, ovulation and corpus luteum in the ovary, 90 to 160 SCNT embryos activated and treated with DEM were transferred into the oviduct by fimbriae. The recipient pig into which the NT embryos were transferred was monitored to confirm whether or not it was estrus, and a pregnancy test was taken every two weeks, 4 weeks after transfer of the fertilized embryos. When the recipient pig gave birth to live, SCNT embryo-derived offspring, its period of pregnancy, the number of live offspring, their weight, and morphological abnormalities found in any of the live offspring were monitored and recorded.
The effect of DEM treatment to the SCNT embryos on delivery rate and the number of pigs born alive was surveyed. Each group of SCNT embryos (107-160/a recipient pig), wherein one was treated with DEM according to Exemplary Embodiment 4 and the other (102-165/a recipient pig) was not treated with DEM, was transferred into 8 to 10 recipient pigs monitored to see whether or not they were estrus. Starting 4 weeks after transfer of the fertilized embryos, they were given pregnancy tests every 2 weeks. When they gave birth to live, SCNT embryo-derived offspring, the period of pregnancy, the number of live offspring, their weight and any morphological abnormalities were monitored and recorded. Further, the number of recipient pigs having live offspring and the number of pigs born alive in a litter were surveyed.

SCNT embryos [3] = experiment: In vitro development of SCNT embryos according to time of DEM treatment; format: cell-based, pig
Description: as §2
Change in in vitro development of SCNT embryos depending on the time of DEM treatment was surveyed. The SCNT embryos activated according to Exemplary Embodiment <3-4> were incubated in NCSU-23 culture medium containing 0.4 μg/ml DEM for 2, 4 and 6 hours, respectively, and cultured in vitro by the same method as described in Experimental Example 1, followed by observation of their development to blastocysts.

[4] = recipient pig transferred with SCNT embryos treated with DEM
[5] = 0.4 μg/ml DEM for 2 hrs, of N=141
[6] = 0.4 μg/ml DEM for 4 hrs, of N=142
[7] = 0.4 μg/ml DEM for 6 hrs, of N=142

## CN[C@H]1CCc2cc(OC)c(OC)c(OC)c2-c2ccc(OC)c(=O)cc21 [DEM, demecolcine]
SCNT porcine embryos; 0.4 μg/ml DEM for 4 hours after activation, second day of in vitro culture
  ≧2-Cell(%): 76.8%
SCNT porcine embryos; 0.4 μg/ml DEM for 4 hours after activation, second day of in vitro culture, of N=187
  ≧2-Cell, number of embryos: 144
SCNT porcine embryos; 0.4 μg/ml DEM for 4 hours after activation, sixth day of in vitro culture
  Blastocyst(%): 27.3%
SCNT porcine embryos; 0.4 μg/ml DEM for 4 hours after activation, sixth day of in vitro culture, of N=187
  Blastocyst, number of embryos: 51
SCNT porcine embryos; 0.4 μg/ml DEM for 4 hours, bis-benzimide staining
  No. of Cells/Blastocysts: 39.5
SCNT porcine embryos; embryos treated with DEM, then cultured in vitro
  development to blastocysts versus Comparative Example 1 (not treated with DEM): significantly improved
SCNT embryos [1]
  1PPN (one pseudo pronucleus) (%): 83.7%
  Multi-PPN (2 or more pseudo pronuclei) (%): 9.3%
  Others(%): 7.0%
SCNT embryos [1]; of N=43
  1PPN (one pseudo pronucleus), number of embryos: 36
  Multi-PPN (2 or more pseudo pronuclei), number of embryos: 4
  Others, number of embryos: 3
[2]; SCNT embryos treated with DEM
  No. of Pigs/Litter: 3.0
[2]; SCNT embryos treated with DEM, 8 recipient pigs
  No. of Pigs Born Alive: 12
[2]; SCNT embryos treated with DEM, 107-160 per recipient pig
  Recipient Pigs Delivered(%): 50.0%
[2]; SCNT embryos treated with DEM, 107-160 per recipient pig, of N=8 recipients
  No. of Recipient Pigs Delivered: 4
[2]; [4]
  delivery rate versus Comparative Example 1 (no DEM): significantly increased
  number of pigs born alive in a litter versus Comparative Example 1 (no DEM): significantly increased
SCNT embryos [3]; 0.4 μg/ml DEM for 2, 4 and 6 hours
  change in in vitro development of the SCNT embryos according to the time of DEM treatment: wasn't a significant change
SCNT embryos [3]; 0.4 μg/ml DEM for 2 hrs
  Blastocysts (%): 24.8%
  No. of Cells/Blastocysts: 35.3 ± 2.1
  ≧2 cells (%): 84.4%
SCNT embryos [3]; [5]
  Blastocysts, number of embryos: 35
  ≧2 cells, number of embryos: 119
SCNT embryos [3]; 0.4 μg/ml DEM for 4 hrs
  Blastocysts (%): 29.6%
  No. of Cells/Blastocysts: 35.2 ± 1.8
  ≧2 cells (%): 80.3%
SCNT embryos [3]; [6]
  Blastocysts, number of embryos: 42
  ≧2 cells, number of embryos: 114
SCNT embryos [3]; 0.4 μg/ml DEM for 6 hrs
  Blastocysts (%): 25.4%
  No. of Cells/Blastocysts: 30.8 ± 2.7
  ≧2 cells (%): 78.2%
SCNT embryos [3]; [7]
  Blastocysts, number of embryos: 36
  ≧2 cells, number of embryos: 111
SCNT embryos [3]; 4-hour incubation period with 0.4 μg/ml DEM
  in vitro development of SCNT embryos, comparison of treatment times: highest level of growth
